Laboratory results reported in patent US6630124B1, “Combination therapy with VIP antagonist” (Ramot-University Authority for Applied Research and …, priority 1998, dated 2003).
Converted amounts (≈) assume the structure as drawn. “Also recorded” adds a separate entry of the source. Where two headings read alike, the source gives them in different places.

What was measured:
HT-29 human colon cancer = assay: MTS cell proliferation assay, SNH and chemotherapy; assay type: cell-based; settings: HT-29, SNH and CPT-11 (FIG. 11)
Method: NCI-H727 and LNCaP were grown in RPMI 1640 medium supplemented with 10% heat inactivated FCS, L-glutamine and antibiotics. HT-29 and CT-26 were grown in DMEM medium supplemented with 10% heat-inactivated FCS (fetal calf serum), L-glutamine and antibiotics. The cells were cultured in 5% CO2/95% air at […] and used during their exponential growth phase. Routinely, the cells which are adherent, were split when a subconfluent monolayer was formed. In different experiments, various concentration of FCS were used. For growth inhibition experiments, subconfluent adherent cells were washed with PBS and treated with trypsin/versene. The cells were pelleted and resuspended in medium to a final concentration of 75,000 cells/mL for NCI-H727. 50,000 cells/mL for LNCaP and HT-29 and 25000 cells/mL for CT-26. These different concentrations were used in order to avoid confluence in the wells at the end of the experiment and correspond to the different doubling times of the cell lines. […] On day 4, viable cell number was determined by a modified MTT assay i.e., MTS non-radioactive cell proliferation assay (Promega). […] Results were finally expressed as percentage of the control, which was obtained from the samples with no drug treatment. Dose-response curves were plotted using a Sigma-Plot software and statistically analyzed using Student test. […] On day 4 the number of viable cells was determined by MTS assay.

[1] = system: NCI-H727 non-small cell lung cancer (carcinoid); assay: MTS cell proliferation assay, SNH and chemotherapy; assay type: cell-based; settings: for nature of the combined effect with SNH: combination with SNH
Method: NCI-H727 and LNCaP were grown in RPMI 1640 medium supplemented with 10% heat inactivated FCS, L-glutamine and antibiotics. HT-29 and CT-26 were grown in DMEM medium supplemented with 10% heat-inactivated FCS (fetal calf serum), L-glutamine and antibiotics. The cells were cultured in 5% CO2/95% air at […] and used during their exponential growth phase. Routinely, the cells which are adherent, were split when a subconfluent monolayer was formed. In different experiments, various concentration of FCS were used. For growth inhibition experiments, subconfluent adherent cells were washed with PBS and treated with trypsin/versene. The cells were pelleted and resuspended in medium to a final concentration of 75,000 cells/mL for NCI-H727. 50,000 cells/mL for LNCaP and HT-29 and 25000 cells/mL for CT-26. These different concentrations were used in order to avoid confluence in the wells at the end of the experiment and correspond to the different doubling times of the cell lines. On day 0, cells suspensions […] were dispensed using a multi-channel pipet into the individual wells of a 96-well tissue culture plate (Nuncion, Nunc Brand Products). […] Cells were incubated for 24 hours in a humidified atmosphere of 95% air/5% CO2 at 37° C. before treatment. On day 1, the cells were treated with different drugs and schedules and maintained under the same conditions. On day 4, viable cell number was determined by a modified MTT assay i.e., MTS non-radioactive cell proliferation assay (Promega). […] Results were finally expressed as percentage of the control, which was obtained from the samples with no drug treatment. Dose-response curves were plotted using a Sigma-Plot software and statistically analyzed using Student test. To determine the effect of the lipophilic VIP antagonist SNH on cell proliferation, cells plated in 96-well microplates for 24 hours as described, were treated with various concentrations of SNH. The peptide was diluted in PBS and […] of the peptide solution was added to each well for a final concentration of the peptide between 10^−510^−9 M. The solvent was added to the control wells. […] A dose-response curve was obtained at concentrations ranging from 2 μM-10 μM (see, FIG. 2). […] The effects of an 8 hours treatment were slightly less, showing that most of the effect is in the initial hours of exposure and much more dose than time dependent. […] For the experiments with the combinations of VIP antagonists and chemotherapeutic agents, on day 0, the cells were plated for 24 hours in medium supplemented with 5% FCS. On day 1, the peptide was added to the wells followed 1 hour later by the chemotherapeutic agents. […] The chemotherapeutic drugs were tested over 7 concentrations, covering as much as possible of the dose response curve of each individual drug. 24 hours later, the medium was exchanged and the cells incubated under the same conditions for another 48 hours. On day 4 the number of viable cells was determined by MTS assay.

[2] = system: cell lines derived from colon cancer and prostate cancer; assay: MTS colorimetric proliferation assay, VIP antagonist with chemotherapeutic agents (Example I); assay type: cell-based; settings: combination with stearyl-Nle17-neurotensis 6-11 VIP 7-28
Method: Assays were performed with cell lines derived from colon cancer and prostate cancer. Proliferation was assessed using the MTS colorimetric assay of mitochondrial function for living cells. The VIP antagonist (stearyl-Nle17-neurotensis 6-11 VIP 7-28) was used.

[3] = system: CT-26 murine colon cancer; assay: MTS cell proliferation assay, SNH and chemotherapy; assay type: cell-based; settings: CT-26, SNH and CPT-11 (FIG. 10)
Method: NCI-H727 and LNCaP were grown in RPMI 1640 medium supplemented with 10% heat inactivated FCS, L-glutamine and antibiotics. HT-29 and CT-26 were grown in DMEM medium supplemented with 10% heat-inactivated FCS (fetal calf serum), L-glutamine and antibiotics. The cells were cultured in 5% CO2/95% air at […] and used during their exponential growth phase. Routinely, the cells which are adherent, were split when a subconfluent monolayer was formed. In different experiments, various concentration of FCS were used.
For growth inhibition experiments, subconfluent adherent cells were washed with PBS and treated with trypsin/versene. The cells were pelleted and resuspended in medium to a final concentration of 75,000 cells/mL for NCI-H727. 50,000 cells/mL for LNCaP and HT-29 and 25000 cells/mL for CT-26. […]
On day 4, viable cell number was determined by a modified MTT assay i.e., MTS non-radioactive cell proliferation assay (Promega). Briefly, […] of freshly prepared MTS/PMS solution was added to each individual well and after 1-3 hours of incubation (the optimal time was determined for each cell line) absorbance at 490 nm was measured using a multiscan plate reader. Results were finally expressed as percentage of the control, which was obtained from the samples with no drug treatment. Dose-response curves were plotted using a Sigma-Plot software and statistically analyzed using Student test. […]

[4] = system: NCI-H157 lung cancer cell line; assay: MTT assay, Taxol with or without SNVIPhyb; assay type: cell-based; settings: Homo sapiens
Excerpt: (§1) The ability of SNVIPhyb to inhibit cancer growth was investigated.

[5] = system: CAPAN pancreatic cancer cell line; assay: MTT assay, Taxol with or without SNVIPhyb; assay type: cell-based
Excerpt: as §1

[6] = system: MCF-7 breast cancer cells; assay: MTT assay, Taxol with or without SNVIPhyb; assay type: cell-based; settings: for IC50: Homo sapiens, MCF7
Excerpt: as §1

[7] = system: NCI-H1299 lung cancer cell line; assay: MTT assay, Taxol with or without SNVIPhyb; assay type: cell-based; settings: Homo sapiens
Excerpt: as §1

[8] = system: PC-3 prostate cancer cell line; assay: MTT assay, Taxol with or without SNVIPhyb; assay type: cell-based
Excerpt: as §1

[9] = system: NCI-H727 non-small cell lung cancer (carcinoid); assay: MTS cell proliferation assay, SNH and chemotherapy; assay type: cell-based; settings: 8 μM SNH 2 h, then Taxol 0.003-1 μg/ml 4 h, then fresh medium 66 h
[10] = system: lung (NCI-H157 and NCI-H1299), breast (MCF-7), pancreatic (CAPAN) and prostate (PC-3) cancer cell lines; assay: MTT assay, Taxol with or without SNVIPhyb, summary over epithelial cancer cell lines
Excerpt: The effects of SNVIPhyb were then investigated in the presence of Taxol, which affects microtubules, causing dividing cells to arrest in the mitosis (M) phase of growth.
The effect of SNVIPhyb was investigated on other epithelial cancer cell lines.

MDA-MB231 xenografts = assay: MDA-MB231 breast cancer xenografts in nude mice; assay type: in vivo, Balb/c nude mice; settings: after 4 weeks; VIPhyb 10 μg/day s.c., Taxol 1.5 mg i.p. once; PBS control 1121 mm^3
Method: To test the proliferative aspects of VIPhybrid analogs in vivo, nude mice bearing breast cancer xenografts were utilized. Female athymic Balb/c nude mice, 4-5 weeks old, were housed in a pathogen-free temperature controlled isolation room and the diet consisted of autoclaved rodent chow and autoclaved water given ad libitum. MDA-MB231 cells (1×10^7) were injected into the right flank of each mouse subcutaneously. […] PBS (100 μl) or VIPhyb analogs (10 μg/day) were injected subcutaneously adjacent to the tumor. Taxol was injected once (1.5 mg i.p.) after 2 weeks. The tumor volume (height×width×depth) was determined twice weekly by calipers and recorded.

In the case of `CCc1c2c(nc3ccc(OC(=O)N4CCC(N5CCCCC5)CC4)cc13)-c1cc3c(c(=O)n1C2)COC(=O)[C@]3(O)CC` [CPT-11], the “effect of the combination with SNH” value (HT-29 human colon cancer) is reported as “enhancing effect”, the “reduction of the IC50 of the chemotherapeutic agent by SNH” value ([1]; 5 μM SNH, NCI-H727) is reported as “at least two-fold” and the “nature of the combined effect with SNH” value [1] is reported as “synergistic”. For the same molecule, the “effect of the combination with the VIP antagonist” value [2] was “synergistic”, the “enhancement of the antiproliferative activity of the chemotherapeutic agent by the lipophilic VIP antagonist” value [2] was “enhance the antiproliferative activity” and the “effect of the combination with SNH” value [3] was “enhancing effect”.
With `CC(=O)O[C@H]1C(=O)[C@@]2(C)[C@H]([C@H](OC(=O)c3ccccc3)[C@]3(O)C[C@H](OC(=O)[C@H](O)[C@@H](NC(=O)c4ccccc4)c4ccccc4)C(C)=C1C3(C)C)[C@]1(OC(C)=O)CO[C@@H]1C[C@@H]2O` [Taxol] the IC50 ([4]; NCI-H157, 10 μM SNVIPhyb, read-out: IC50 with 10 μM SNVIPhyb) was 2.5 µg/mL (≈ 2.93 µM), the IC50 ([4]; NCI-H157, Taxol alone, read-out: IC50) was 10 µg/mL (≈ 11.7 µM) and the IC50 ([5]; 10 μM SNVIPhyb, read-out: IC50 with 10 μM SNVIPhyb) was 3 µg/mL (≈ 3.51 µM). It also gave an IC50 ([5]; Taxol alone, read-out: IC50) of 10 µg/mL (≈ 11.7 µM), an IC50 ([6]; MCF-7, 3 μM SNVIPhyb, read-out: IC50 in the presence of 3 μM SNVIPhyb) of 24 µg/mL and an IC50 ([6]; MCF-7, 10 μM SNVIPhyb, read-out: IC50 with 10 μM SNVIPhyb) of 2 µg/mL (≈ 2.34 µM). The IC50 ([6]; MCF-7, Taxol alone, read-out: IC50) was 12 µg/mL (≈ 14.1 µM), the “increase of cytotoxicity by SNVIPhyb” value ([6]; MCF-7, combination with SNVIPhyb) was “increases the cytotoxicity” and the “effect on MCF-7 cells” value ([6]; Taxol at 1 μg/mL) was “little effect”. The IC50 ([7]; NCI-H1299, 10 μM SNVIPhyb, read-out: IC50 with 10 μM SNVIPhyb) was 3 µg/mL (≈ 3.51 µM), the IC50 ([7]; NCI-H1299, Taxol alone, read-out: IC50) was 8 µg/mL (≈ 9.37 µM) and the IC50 ([8]; PC-3, 10 μM SNVIPhyb, read-out: IC50 with 10 μM SNVIPhyb) was 5 µg/mL (≈ 5.86 µM). For the same molecule, the IC50 ([8]; PC-3, Taxol alone, read-out: IC50) was 15 µg/mL (≈ 17.6 µM), the “reduction of the IC50 of Taxol by SNH” value [9] was “about 6 fold” and the “nature of the combined effect with SNH” value [1] was “very effective; also recorded: synergistic”. For the same molecule, the “interaction with SNVIPhyb at inhibiting cancer cell proliferation” value ([10]; combination with SNVIPhyb) was “synergistic”, the “increase of potency in the presence of SNVIPhyb” value ([10]; epithelial cancer cells) was 3-6 fold and the IC50 ([10]; read-out: IC50 values over the cell lines) was 8 to 15 µg/mL (≈ 9.37 to 17.6 µM). For the same molecule, the IC50 ([10]; read-out: IC50 values over the cell lines in the presence of 10 μM SNVIPhyb) was 2.5 to 5 µg/mL and the “tumor volume (height×width×depth)” value (MDA-MB231 xenografts) was 613 mm^3.
